{"source": "ChEMBL document CHEMBL5465560", "about": "“Selectivity Literature for EUbOPEN Chemogenomic Library” (2024)", "key": {"[1]": {"molecular_target": "Ribosomal protein S6 kinase alpha-5 (Homo sapiens) (UniProt O75582)", "sequence (O75582 whole entry, looked up)": "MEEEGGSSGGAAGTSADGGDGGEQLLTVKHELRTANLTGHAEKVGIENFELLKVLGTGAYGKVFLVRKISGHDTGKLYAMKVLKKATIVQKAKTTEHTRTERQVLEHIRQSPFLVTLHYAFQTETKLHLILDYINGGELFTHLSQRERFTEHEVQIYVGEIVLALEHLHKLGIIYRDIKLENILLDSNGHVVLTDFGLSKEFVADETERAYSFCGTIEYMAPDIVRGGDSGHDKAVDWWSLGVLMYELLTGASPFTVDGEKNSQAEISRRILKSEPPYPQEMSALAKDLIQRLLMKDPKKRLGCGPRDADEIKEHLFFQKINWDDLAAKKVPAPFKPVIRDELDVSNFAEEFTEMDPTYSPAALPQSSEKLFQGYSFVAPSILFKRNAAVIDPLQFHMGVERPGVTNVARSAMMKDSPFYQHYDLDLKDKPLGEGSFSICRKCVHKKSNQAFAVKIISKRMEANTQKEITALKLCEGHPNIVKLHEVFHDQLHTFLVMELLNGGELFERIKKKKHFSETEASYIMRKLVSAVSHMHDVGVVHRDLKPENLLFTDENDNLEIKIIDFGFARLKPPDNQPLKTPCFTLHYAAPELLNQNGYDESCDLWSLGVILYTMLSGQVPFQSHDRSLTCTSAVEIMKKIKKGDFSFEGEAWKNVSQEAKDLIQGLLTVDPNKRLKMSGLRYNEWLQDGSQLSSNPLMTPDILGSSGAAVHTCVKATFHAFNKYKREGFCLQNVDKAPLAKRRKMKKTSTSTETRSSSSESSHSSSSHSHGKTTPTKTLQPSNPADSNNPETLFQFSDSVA", "experiment": "Selectivity interaction (Kinase panel (literature)) EUB0001199aCl RPS6KA5", "settings": "at 1 µM"}, "[2]": {"molecular_target": "Serine/threonine-protein kinase 26 (Homo sapiens, UniProt Q9P289)", "sequence (Q9P289 2-416 limits assumed)": "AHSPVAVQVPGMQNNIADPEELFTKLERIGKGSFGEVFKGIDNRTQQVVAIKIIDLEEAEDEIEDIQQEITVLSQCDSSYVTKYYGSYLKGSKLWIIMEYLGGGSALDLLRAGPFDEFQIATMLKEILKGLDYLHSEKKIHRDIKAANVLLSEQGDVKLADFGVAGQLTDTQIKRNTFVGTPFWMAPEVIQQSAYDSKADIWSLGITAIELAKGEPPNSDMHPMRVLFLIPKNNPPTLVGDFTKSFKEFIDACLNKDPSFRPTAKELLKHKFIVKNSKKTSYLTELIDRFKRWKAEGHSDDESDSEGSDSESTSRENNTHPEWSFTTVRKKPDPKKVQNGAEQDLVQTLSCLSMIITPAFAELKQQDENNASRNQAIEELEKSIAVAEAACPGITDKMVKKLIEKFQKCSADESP", "experiment": "Selectivity interaction (SelectScreen profiling (Invitrogen)) EUB0000607a STK26", "settings": "at 2 µM"}, "[3]": {"molecular_target": "Mitogen-activated protein kinase 3 (Homo sapiens, UniProt P27361)", "sequence (P27361 whole entry)": "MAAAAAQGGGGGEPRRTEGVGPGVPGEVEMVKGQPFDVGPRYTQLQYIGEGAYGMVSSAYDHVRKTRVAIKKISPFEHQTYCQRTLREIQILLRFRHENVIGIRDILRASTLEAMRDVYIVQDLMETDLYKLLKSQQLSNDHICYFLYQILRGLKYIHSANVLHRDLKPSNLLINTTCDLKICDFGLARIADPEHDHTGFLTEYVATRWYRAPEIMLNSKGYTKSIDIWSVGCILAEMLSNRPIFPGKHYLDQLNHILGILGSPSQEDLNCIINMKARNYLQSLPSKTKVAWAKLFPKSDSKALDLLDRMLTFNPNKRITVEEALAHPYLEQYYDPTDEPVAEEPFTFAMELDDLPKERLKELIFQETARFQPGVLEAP", "experiment": "Selectivity interaction (KinomeScan (DiscoverX)) EUB0000607a MAPK3", "settings": "at 10 µM"}, "[4]": {"molecular_target": "Ribosomal protein S6 kinase alpha-5 (Homo sapiens) (UniProt O75582)", "experiment": "Selectivity interaction (KinomeScan (DiscoverX)) EUB0001619a RPS6KA5", "settings": "at 1 µM"}, "[5]": {"molecular_target": "T1, Dual specificity mitogen-activated protein kinase kinase 4 (Homo sapiens) (UniProt P45985)", "T1 sequence (whole entry)": "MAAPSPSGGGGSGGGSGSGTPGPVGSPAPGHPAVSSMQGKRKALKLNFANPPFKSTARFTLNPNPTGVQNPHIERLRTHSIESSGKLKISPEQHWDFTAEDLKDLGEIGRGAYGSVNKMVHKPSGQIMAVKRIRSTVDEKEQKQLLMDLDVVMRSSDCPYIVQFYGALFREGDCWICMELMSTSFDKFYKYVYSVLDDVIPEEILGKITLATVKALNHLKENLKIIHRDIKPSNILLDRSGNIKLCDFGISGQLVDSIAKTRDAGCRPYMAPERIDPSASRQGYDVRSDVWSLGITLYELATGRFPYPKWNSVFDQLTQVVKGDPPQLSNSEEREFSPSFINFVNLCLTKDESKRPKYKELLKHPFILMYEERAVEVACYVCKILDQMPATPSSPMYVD", "experiment": "Selectivity interaction (ActivX KiNativ screen (ex vivo kinase selectivity in human PBMCs)) EUB0001619a MAP2K4", "format": "cell-based", "settings": "PBMC, at 1 µM"}, "[6]": {"molecular_target": "Serine/threonine-protein kinase MRCK alpha (Homo sapiens) (UniProt Q5VT25)", "experiment": "Selectivity interaction (Kinase panel (DSF assay)) EUB0001558a CDC42BPA"}, "Focal adhesion kinase 1": {"molecular_target": "Focal adhesion kinase 1 (Homo sapiens, UniProt Q05397)", "sequence (Q05397 2-1052 limits assumed)": "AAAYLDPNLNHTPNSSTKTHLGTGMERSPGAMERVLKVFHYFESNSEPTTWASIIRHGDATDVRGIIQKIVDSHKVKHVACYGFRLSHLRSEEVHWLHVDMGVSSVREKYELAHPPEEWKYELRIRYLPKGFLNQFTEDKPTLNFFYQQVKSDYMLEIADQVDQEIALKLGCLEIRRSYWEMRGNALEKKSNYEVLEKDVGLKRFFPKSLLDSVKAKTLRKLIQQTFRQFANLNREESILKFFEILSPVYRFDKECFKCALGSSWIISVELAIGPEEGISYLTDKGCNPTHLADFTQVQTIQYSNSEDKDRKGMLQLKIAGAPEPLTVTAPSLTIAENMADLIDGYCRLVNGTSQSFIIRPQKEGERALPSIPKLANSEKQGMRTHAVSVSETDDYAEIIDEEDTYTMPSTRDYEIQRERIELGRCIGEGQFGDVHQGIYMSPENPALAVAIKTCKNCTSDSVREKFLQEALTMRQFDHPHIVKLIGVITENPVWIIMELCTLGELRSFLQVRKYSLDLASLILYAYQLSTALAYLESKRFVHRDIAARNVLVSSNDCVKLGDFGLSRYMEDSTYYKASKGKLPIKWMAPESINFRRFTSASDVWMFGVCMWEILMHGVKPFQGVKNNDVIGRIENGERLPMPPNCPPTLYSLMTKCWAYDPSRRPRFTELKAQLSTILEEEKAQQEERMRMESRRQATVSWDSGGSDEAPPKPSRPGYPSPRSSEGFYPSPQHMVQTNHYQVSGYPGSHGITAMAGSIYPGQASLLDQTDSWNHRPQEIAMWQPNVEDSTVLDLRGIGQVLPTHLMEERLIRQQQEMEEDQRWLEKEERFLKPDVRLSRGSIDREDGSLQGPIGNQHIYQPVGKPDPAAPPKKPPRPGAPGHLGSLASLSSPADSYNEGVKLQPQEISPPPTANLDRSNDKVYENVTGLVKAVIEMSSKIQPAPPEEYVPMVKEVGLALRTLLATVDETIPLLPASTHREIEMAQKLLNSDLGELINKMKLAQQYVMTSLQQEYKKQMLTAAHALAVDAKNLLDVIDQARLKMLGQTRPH", "experiment": "Selectivity interaction (KinomeScan (DiscoverX)) EUB0000045b PTK2"}, "[7]": {"molecular_target": "T2, Serine/threonine-protein kinase Nek3 (Homo sapiens) (UniProt P51956)", "T2 sequence (whole entry)": "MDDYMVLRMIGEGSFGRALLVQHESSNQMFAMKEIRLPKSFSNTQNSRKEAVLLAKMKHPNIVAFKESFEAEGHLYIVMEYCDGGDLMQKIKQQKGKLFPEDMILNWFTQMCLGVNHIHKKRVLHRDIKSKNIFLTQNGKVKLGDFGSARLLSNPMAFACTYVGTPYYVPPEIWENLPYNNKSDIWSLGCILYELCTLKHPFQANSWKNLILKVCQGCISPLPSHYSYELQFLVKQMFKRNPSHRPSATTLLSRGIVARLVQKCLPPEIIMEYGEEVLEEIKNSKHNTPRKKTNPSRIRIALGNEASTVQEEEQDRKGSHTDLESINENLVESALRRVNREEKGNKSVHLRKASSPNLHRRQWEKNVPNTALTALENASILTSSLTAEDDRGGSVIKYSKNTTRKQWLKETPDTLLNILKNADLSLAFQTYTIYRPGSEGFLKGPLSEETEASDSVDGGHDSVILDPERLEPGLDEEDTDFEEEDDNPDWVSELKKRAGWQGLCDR", "experiment": "Selectivity interaction (Kinase panel (KiNativ target engagement assay in Jurkat cells)) EUB0001635a NEK3", "format": "cell-based", "settings": "at 1 µM"}, "[8]": {"molecular_target": "Ribosomal protein S6 kinase beta-1 (Homo sapiens, UniProt P23443)", "settings": "at 10 µM"}, "[9]": {"molecular_target": "T3, 5-hydroxytryptamine receptor 3A (Homo sapiens) (UniProt P46098)", "T3 sequence (whole entry)": "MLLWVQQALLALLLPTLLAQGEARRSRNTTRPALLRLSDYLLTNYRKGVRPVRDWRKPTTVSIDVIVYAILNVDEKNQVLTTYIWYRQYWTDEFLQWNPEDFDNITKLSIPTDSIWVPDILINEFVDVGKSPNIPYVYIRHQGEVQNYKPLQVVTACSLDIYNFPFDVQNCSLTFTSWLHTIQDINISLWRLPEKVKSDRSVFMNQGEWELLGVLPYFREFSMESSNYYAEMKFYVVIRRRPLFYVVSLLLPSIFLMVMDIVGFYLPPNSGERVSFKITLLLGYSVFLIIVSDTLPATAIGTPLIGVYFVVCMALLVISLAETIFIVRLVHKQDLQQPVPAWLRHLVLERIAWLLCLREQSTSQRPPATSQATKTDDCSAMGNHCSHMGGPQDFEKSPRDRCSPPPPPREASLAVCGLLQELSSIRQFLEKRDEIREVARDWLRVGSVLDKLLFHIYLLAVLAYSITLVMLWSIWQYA", "experiment": "Selectivity interaction (Panel of kinases, GPCRs, ion channels and transporters (enzymatic assay)) EUB0000266bCl HTR3A"}, "[10]": {"molecular_target": "Serine/threonine-protein kinase MARK1 (Homo sapiens) (UniProt Q9P0L2)", "sequence (Q9P0L2 whole entry, looked up)": "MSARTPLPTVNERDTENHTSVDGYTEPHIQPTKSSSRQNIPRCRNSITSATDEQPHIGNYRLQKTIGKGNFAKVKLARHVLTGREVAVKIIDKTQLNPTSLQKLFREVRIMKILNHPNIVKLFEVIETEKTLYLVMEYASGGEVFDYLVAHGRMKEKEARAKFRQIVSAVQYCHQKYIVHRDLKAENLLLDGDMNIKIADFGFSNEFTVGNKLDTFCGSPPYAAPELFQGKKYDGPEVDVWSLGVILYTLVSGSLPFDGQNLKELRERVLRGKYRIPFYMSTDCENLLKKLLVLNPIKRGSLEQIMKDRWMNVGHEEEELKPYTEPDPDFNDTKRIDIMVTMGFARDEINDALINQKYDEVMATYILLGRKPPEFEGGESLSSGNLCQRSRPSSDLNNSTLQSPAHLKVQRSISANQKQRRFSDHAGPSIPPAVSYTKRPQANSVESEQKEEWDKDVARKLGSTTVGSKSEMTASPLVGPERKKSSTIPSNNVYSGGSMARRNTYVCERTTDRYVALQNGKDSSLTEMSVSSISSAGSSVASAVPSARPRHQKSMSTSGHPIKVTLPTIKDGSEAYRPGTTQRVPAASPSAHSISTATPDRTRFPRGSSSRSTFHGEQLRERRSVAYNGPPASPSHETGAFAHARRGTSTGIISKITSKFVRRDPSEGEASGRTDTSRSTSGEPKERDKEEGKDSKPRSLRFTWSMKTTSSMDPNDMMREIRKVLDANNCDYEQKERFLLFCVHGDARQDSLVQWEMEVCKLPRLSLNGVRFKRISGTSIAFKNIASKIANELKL", "experiment": "Selectivity interaction (KinomeScan (DiscoverX)) EUB0000666a MARK1", "settings": "at 10 µM"}, "[11]": {"molecular_target": "Serine/threonine-protein kinase PAK 2 (Homo sapiens) (UniProt Q13177)", "experiment": "Selectivity interaction (KinomeScan (DiscoverX)) EUB0000666a PAK2", "settings": "at 10 µM"}, "[12]": {"molecular_target": "T4, Serine/threonine-protein kinase 17B (Homo sapiens) (UniProt O94768)", "T4 sequence (whole entry)": "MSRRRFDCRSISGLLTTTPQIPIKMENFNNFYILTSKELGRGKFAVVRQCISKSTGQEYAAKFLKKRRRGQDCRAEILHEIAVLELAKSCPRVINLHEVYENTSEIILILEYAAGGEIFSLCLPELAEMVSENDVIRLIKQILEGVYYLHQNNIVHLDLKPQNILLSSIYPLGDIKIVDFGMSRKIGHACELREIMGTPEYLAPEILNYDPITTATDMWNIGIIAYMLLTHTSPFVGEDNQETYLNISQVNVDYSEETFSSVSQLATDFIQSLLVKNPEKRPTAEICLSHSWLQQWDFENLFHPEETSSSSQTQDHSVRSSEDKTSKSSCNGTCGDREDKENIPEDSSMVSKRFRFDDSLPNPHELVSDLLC", "experiment": "Selectivity interaction (KinomeScan (DiscoverX)) EUB0000666a STK17B", "settings": "at 10 µM"}, "[13]": {"molecular_target": "Fibroblast growth factor receptor 2 (Homo sapiens) (UniProt P21802)", "sequence (P21802 22-821 limits assumed)": "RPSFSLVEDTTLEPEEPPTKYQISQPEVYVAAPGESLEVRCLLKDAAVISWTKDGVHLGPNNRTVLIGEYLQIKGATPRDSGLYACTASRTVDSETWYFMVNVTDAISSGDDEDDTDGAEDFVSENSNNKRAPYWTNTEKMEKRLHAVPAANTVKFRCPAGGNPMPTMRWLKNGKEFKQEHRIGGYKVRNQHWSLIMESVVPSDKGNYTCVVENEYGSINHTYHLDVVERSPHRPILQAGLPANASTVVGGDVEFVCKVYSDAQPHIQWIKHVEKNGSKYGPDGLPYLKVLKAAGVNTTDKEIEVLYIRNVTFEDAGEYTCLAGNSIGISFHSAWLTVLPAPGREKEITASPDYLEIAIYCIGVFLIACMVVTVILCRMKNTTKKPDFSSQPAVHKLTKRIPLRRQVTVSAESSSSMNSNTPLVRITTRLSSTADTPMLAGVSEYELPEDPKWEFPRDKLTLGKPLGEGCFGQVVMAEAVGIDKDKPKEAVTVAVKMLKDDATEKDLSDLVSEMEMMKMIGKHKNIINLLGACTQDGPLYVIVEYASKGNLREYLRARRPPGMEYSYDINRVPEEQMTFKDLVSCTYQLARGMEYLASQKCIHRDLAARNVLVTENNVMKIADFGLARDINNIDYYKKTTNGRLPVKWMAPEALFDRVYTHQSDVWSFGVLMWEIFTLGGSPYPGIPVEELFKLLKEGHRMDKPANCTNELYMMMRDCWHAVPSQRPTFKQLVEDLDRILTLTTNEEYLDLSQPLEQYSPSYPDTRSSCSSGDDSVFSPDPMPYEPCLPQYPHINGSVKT", "experiment": "Selectivity interaction (KinomeScan (DiscoverX)) EUB0000666a FGFR2", "settings": "at 10 µM"}, "[14]": {"molecular_target": "Leukocyte tyrosine kinase receptor (Homo sapiens, UniProt P29376)", "experiment": "Selectivity interaction (KinomeScan (DiscoverX)) EUB0000092b LTK", "settings": "at 10 µM"}, "[15]": {"molecular_target": "Bone morphogenetic protein receptor type-1B (Homo sapiens, UniProt O00238)", "experiment": "Selectivity interaction (KinomeScan (DiscoverX)) EUB0000092b BMPR1B", "settings": "at 10 µM"}, "[16]": {"molecular_target": "Protein kinase C beta type (Homo sapiens, UniProt P05771)", "experiment": "Selectivity interaction (Kinase screening (Nanosyn)) EUB0000604a PRKCB"}, "[17]": {"molecular_target": "Ribosomal protein S6 kinase alpha-1 (Homo sapiens, UniProt Q15418)", "sequence (Q15418 whole entry)": "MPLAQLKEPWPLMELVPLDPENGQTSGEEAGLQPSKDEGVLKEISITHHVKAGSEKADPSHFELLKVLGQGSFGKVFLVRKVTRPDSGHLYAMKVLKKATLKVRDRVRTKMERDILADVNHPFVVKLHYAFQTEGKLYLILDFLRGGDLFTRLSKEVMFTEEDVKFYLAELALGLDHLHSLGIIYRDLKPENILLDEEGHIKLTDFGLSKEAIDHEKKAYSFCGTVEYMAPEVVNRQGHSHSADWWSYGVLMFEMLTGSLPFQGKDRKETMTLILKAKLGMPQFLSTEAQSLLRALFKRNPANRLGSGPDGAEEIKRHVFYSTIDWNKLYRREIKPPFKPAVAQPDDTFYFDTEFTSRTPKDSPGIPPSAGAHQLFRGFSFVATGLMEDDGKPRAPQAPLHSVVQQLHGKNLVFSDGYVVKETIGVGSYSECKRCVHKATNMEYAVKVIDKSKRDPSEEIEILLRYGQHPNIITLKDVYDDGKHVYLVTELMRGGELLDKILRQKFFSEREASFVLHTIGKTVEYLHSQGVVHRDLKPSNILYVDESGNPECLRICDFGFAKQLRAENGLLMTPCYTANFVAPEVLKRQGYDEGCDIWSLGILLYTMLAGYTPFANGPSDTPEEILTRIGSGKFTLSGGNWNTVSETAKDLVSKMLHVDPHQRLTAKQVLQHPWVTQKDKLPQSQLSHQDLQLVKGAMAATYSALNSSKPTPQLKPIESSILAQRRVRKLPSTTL", "experiment": "Selectivity interaction (KinomeScan (DiscoverX)) EUB0000695a RPS6KA1", "settings": "at 100 nM"}}, "data": [{"smiles": "CN1Cc2nccc(-c3cn(C)nc3-c3ccc(F)cc3)c2C1=O", "values": [{"measurement": "% of inhibition", "setting": "[1]", "value": 0, "unit": "%"}]}, {"smiles": "CNC(=O)Nc1ccc(-c2nc(N3CC4CCC(C3)O4)c3cnn(C4CCC5(CC4)OCCO5)c3n2)cc1", "values": [{"measurement": "% of inhibition", "setting": "[2]", "value": 7, "unit": "%"}, {"measurement": "% of control", "setting": "[3]", "value": 97, "unit": "%"}]}, {"smiles": "N#Cc1cccc(-c2c[nH]c3ncnc(N4CCOCC4)c23)c1", "values": [{"measurement": "% of control", "setting": "[4]", "value": 74, "unit": "%"}, {"measurement": "% of inhibition", "setting": "[5]", "value": 19, "unit": "%"}]}, {"smiles": "CC(C)(O)[C@H](F)CN1Cc2cc(NC(=O)c3cnn4cccnc34)c(N3CCOCC3)cc2C1=O", "values": [{"measurement": "dTM", "setting": "[6]", "value": 0.2, "unit": "K"}]}, {"smiles": "C=CC(=O)Nc1cc(-n2c(=O)ccc3cnc4ccc(-c5ccc(NS(C)(=O)=O)cc5)cc4c32)ccc1C", "values": [{"measurement": "% of control", "setting": "Focal adhesion kinase 1; at 1 µM", "value": 96, "unit": "%"}, {"measurement": "% of control", "setting": "Focal adhesion kinase 1; at 10 µM", "value": 100, "unit": "%"}]}, {"smiles": "C=CC(=O)Nc1ccc(C(=O)Nc2[nH]nc3c2CN(C(=O)N[C@H](CN(C)C)c2ccccc2)C3(C)C)cc1", "values": [{"measurement": "% of engagement", "setting": "[7]", "value": 4.4, "unit": "%"}]}, {"smiles": "Cc1cc([C@@H](C)Nc2ccccc2C(=O)O)c2nc(N3CCOCC3)cc(=O)n2c1", "note": "[AZD-6482]", "values": [{"measurement": "% of control", "setting": "[8]", "value": 72, "unit": "%"}]}, {"smiles": "CCn1c(-c2nc3cc(C(=O)N4CCCC(N)C4)ccc3n2C)cc2ccccc21", "note": "(centres undefined)", "values": [{"measurement": "pXC50", "setting": "[9]", "value": "< 4.3", "unit": "M"}]}, {"smiles": "O=C(NOC[C@H](O)CO)c1ccc(F)c(F)c1Nc1ccc(I)cc1F", "values": [{"measurement": "% of control", "setting": "[10]", "value": 100, "unit": "%"}, {"measurement": "% of control", "setting": "[11]", "value": 93, "unit": "%"}, {"measurement": "% of control", "setting": "[12]", "value": 100, "unit": "%"}, {"measurement": "% of control", "setting": "[13]", "value": 100, "unit": "%"}]}, {"smiles": "CCC(=O)N1CCN(c2ccc(-n3c(=O)ccc4cnc5ccc(-c6cnc7ccccc7c6)cc5c43)cc2C(F)(F)F)CC1", "values": [{"measurement": "% of control", "setting": "[14]", "value": 77, "unit": "%"}, {"measurement": "% of control", "setting": "[15]", "value": 100, "unit": "%"}]}, {"smiles": "Cc1cnc(Nc2ccc(F)cc2Cl)nc1-c1c[nH]c(C(=O)N[C@H](CO)c2cccc(Cl)c2)c1", "values": [{"measurement": "% of inhibition", "setting": "[16]", "value": 4, "unit": "%"}]}, {"smiles": "Cc1cc(F)c(C(=O)Nc2cccc(-c3nncn3C(C)C)n2)cc1-n1cnc(C2CC2)c1", "values": [{"measurement": "% of control", "setting": "[17]", "value": 100, "unit": "%"}]}]}
